The record followed here is article PMC10411625, “Rationally designed stapled peptides allosterically inhibit PTBP1–RNA-binding” (Chemical Science, 2023).

Data set [1] is described as follows: Peptide stability in HEK293T cell lysate. The data set is classed as in vitro ADME. As to conditions: human, HEK293T lysate 1 mg/ml in PBS, 1 mM peptide, 37 °C, HPLC/LCMS peak area normalized to ethylparaben standard, read-out: peptide still intact after 24 hours in cell lysate. From the text: Stapled peptides have been reported to be able to pass cell membranes with high efficiency, but their cell permeability is dependent on the peptide sequence and the position of the staple.[41] To evaluate whether the α3-helix derived peptide is cell permeable, we used azidolysine derivatized variants of P-6 and P-6S (P-6-Az and P-6S-Az) and used them in the NanoClick assay.[60] In this assay cells are transfected to express a NanoLuc–HaloTag fusion protein followed by treatment with a dibenzoazacyclooctyne reagent modified with a chloroalkane (DIBAC–CA) that covalently modifies the HaloTag protein. When an azide modified NanoBRET acceptor (NB618-Az) is added, it will undergo strain promoted azide–alkyne cycloaddition (SPAAC) with the DIBAC–CA placing the acceptor in the proximity of the NanoLuc protein leading to an observable BRET signal. […] The SPAAC reaction only happens if the peptide is able to reach the cytosol and the assay therefore provides a read-out of cell-permeability. […]
Peptide stability was measured in HEK293T lysates. […]
The samples were chilled on ice for 15 min and insoluble material was removed by centrifugation (16873 x g, 4 °C, 10 min). The supernatant was analysed by LCMS with a gradient of H2O (0.1% TFA) and ACN (0.1% TFA) from 5 to 95 % over 20 min. […]

The target in another data set is T1, hnRNP A2/B1 (Homo sapiens, UniProt P22626).
T1 construct: (1-251); made in house; host or cells: E. coli BL21 (DE3) RIPL
T1 sequence (P22626 1-251, species assumed): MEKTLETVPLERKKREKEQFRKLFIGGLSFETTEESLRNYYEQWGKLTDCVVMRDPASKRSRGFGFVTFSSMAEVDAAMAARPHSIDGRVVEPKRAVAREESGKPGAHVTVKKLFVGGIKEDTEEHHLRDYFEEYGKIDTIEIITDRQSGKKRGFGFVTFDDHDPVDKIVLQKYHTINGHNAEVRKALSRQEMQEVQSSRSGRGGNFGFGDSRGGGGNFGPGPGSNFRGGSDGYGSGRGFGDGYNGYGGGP
Put plainly: Competitive fluorescence polarization assay, hnRNP A2/B1 and RNA-AB. The class given is binding. As to conditions: Fig. 3C; competitive FP, 10 nM hnRNPA2/B1, 1 nM Cy5-labeled RNA-AB, 25 mM HEPES pH 8.0; read-out: P-6 Ki, construct hnRNP A2/B1. From the text: The RRM domain is the most commonly occurring RNA-binding domain in the proteome making it challenging to find selective inhibitors.[23,46] Although various ligands have been described, their selectivity is rarely investigated, with an exception for the Musashi-1 inhibitor Ro 08-2750.[47–58] To investigate whether P-6 has an effect on the RNA-binding of other dual RRM containing proteins, we evaluated its inhibitory potency against another hnRNP protein (hnRNP A2/B1) as well as a splicing factor from the SR-protein class (SRSF1).[1] We evaluated P-6 in competitive fluorescence polarization assays using previously described RNAs recognized by these proteins.[59] […]
performed in FP bufferPTBP1. […]
serially diluted in the same buffer. […]
a final concentration of 10 nM probe. […]
the settings mentioned previously.
Fluorescence polarization assay with SRSF1
Fluorescence polarization was
Fluorescence polarization assay with hnRNPA2/B1
For the competitive assay 10 nM
Microscale thermophoresis […]
afterwards serially diluted into FP buffer.
The data was evaluated at […]
experiments were performed in duplicates.
Circular Dichroism Spectroscopy […]
secondary structure analysis with a reference data set. For experiments with PTBP1 constructs the […]
Background: In fluorescence polarisation assays a small probe gives low polarisation when free and higher when bound to something large.

Turning to `CC(=O)N[C@@H](CC(N)=O)C(=O)N[C@@H](CCC(N)=O)C(=O)N[C@@]1(C)CCCCCCCC[C@@](C)(C(=O)N[C@@H](C)C(=O)N[C@@H](CC(C)C)C(=O)N[C@@H](CCC(N)=O)C(=O)N[C@@H](C)C(=O)N[C@H](C(=O)N[C@@H](CC(N)=O)C(N)=O)C(C)C)NC(=O)[C@H](CCC(N)=O)NC(=O)[C@H](C)NC(=O)[C@H](CCCNC(=N)N)NC1=O` [Peptide P-2], in data set [1], the remaining at 24 h, 1 mM came out at 12%. With `CC(=O)N[C@@H](CC(N)=O)C(=O)N[C@@H](CCC(N)=O)C(=O)N[C@@]1(C)CCCC=CCCCC2(CCCC=CCCC[C@](C)(C(=O)N[C@H](C(=O)N[C@@H](CC(N)=O)C(N)=O)C(C)C)NC(=O)[C@H](CCC(N)=O)NC(=O)[C@H](CC(C)C)NC(=O)[C@H](C)NC2=O)NC(=O)[C@H](CCC(N)=O)NC(=O)[C@H](C)NC(=O)[C@H](CCCNC(=N)N)NC1=O` (stereo partly drawn) [Peptide P-6], the Ki at hnRNP A2/B1 is above 1000 µM. Moreover, the remaining at 24 h, 1 mM in data set [1] was determined as 43%.
